We go through four molecules from US9487561B2, “Biologically active complex and its preparation” (HAMLET PHARMA AB, priority 2010, dated 2016).

The test system of assay [1] is eIF2α, ATF6, XBP1, CHOP in A549 tumor cells. The assay can be described thus: ER stress response (Western blot, XBP1 splicing PCR, RT-PCR). The following applies: for effect of ion channel inhibitor on HAMLET-induced eIF2α phosphorylation (ER stress): lung carcinoma cells, 30 minutes pretreatment, HAMLET 21 and 35 μM, 1 hour; for XBP1 splicing: PCR. The class given is cell-based, human. On the procedure:
(§1) RNA was prepared with the RNeasy Mini Kit (QIAGEN, Hilden, Germany) and treated with DNAse I (QIAGEN). cDNA was synthesized using the Superscript III first strand RT-PCR system (Invitrogen). PCR of spliced and un-spliced XBP1 was as described (Yoshida et al., 2001, Cell 107: 881-891). Real-time PCR was performed on a Rotorgene 2000 instrument (Corbett Life Science, Sydney, Australia) using TaqMan Gene Expression Assays (Applied BioSystems) CHOP/DDIT3 (Hs01090850), IL6 (Hs00985639), IL8 (Hs00174103) and TNFα (Hs00174128). GAPDH (Hs99999905_m1) was used for normalization.
(§2) Equal volumes of lysates were separated by SDS-PAGE on 4-12% Bis-Tris gels (Invitrogen) and blotted onto PVDF membranes. For other Western blots, 200,000 cells were allowed to adhere overnight in a 6-well plate. After HAMLET treatment the cells were washed with PBS and lysed in M-PER lysis buffer (Pierce) containing Complete protease inhibitor cocktail and PhosSTOP phosphatase inhibitor cocktail (both from Roche). The detached cells were collected by centrifugation. The lysates were cleared by centrifugation and protein concentrations were measured using the DC Protein Assay (Bio-Rad Laboratories, Hercules, Calif.). Equal amounts of protein were separated by SDS-PAGE on 4-12% Bis-Tris gels (Invitrogen) and blotted onto PVDF membranes (GE Healthcare). Membranes were saturated with BSA (GAPDH) or nonfat dry milk (phospho-p38, p38, phospho-ERK1/2, ERK1/2) and incubated with anti-p38, anti-phospho-p38, anti-ERK1/2, anti-phospho-(Thr202/Tyr204)-p44/42 (all 1:500-1000, Cell Signaling Technology), anti-ATF6 (1:1000, IMG-273, Imgenex), anti-phospho-eIF2α (Ser51), (1:500, Cell Signaling Technology) or anti-GAPDH (1:3000-5000, Novus Biologicals) antibodies followed by horseradish peroxidase-conjugated anti-rabbit (1:1000, DakoCytomation, Glostrup, Denmark) or anti-mouse (1:40000-50000, Novus Biologicals) antibodies for staining. Bound antibodies were detected with ECL Plus Western Blotting Reagent (GE Healthcare, Little Chalfont, UK) and GelDoc equipment (Bio-Rad Laboratories, Hercules, Calif.). If required, membranes were stripped with Restore Western Blot Stripping Buffer (Pierce, Rockford, Ill.), blocked and reprobed with new antibodies. MAP kinase phosphorylation was analyzed on a Human Phospho-MAPK array (Proteome Profiler Array, R&D Systems) as per the manufacturer's instruction. Band and spot intensities were quantified using ImageJ (Abramoff et al., July 2004, Biophotonics International). Cytokine quantification (IL6, IL8, TNFα) was performed on an […] 1000 immunoassay system (Siemens Diagnostics).
Disturbances in ER Ca^2+ regulation can impair protein folding in the ER by inactivation of Ca^2+ dependent chaperones, such as GRP78 and calreticulin. An increase in unfolded proteins may activate a conserved series of signal-transduction events. Spanning the ER membrane, three ER stress sensors PERK, ATF6 and IRE1 are activated by an overload of unfolded proteins. Upon PERK activation, eIF2α is phosphorylated, shutting down protein translation to avoid unfolded protein overload. To examine if HAMLET disturbs the ER and triggers an unfolded protein response, we analyzed the transcription of ER stress-induced genes.
A general note: A western blot detects proteins with antibodies after separation by electrophoresis.

For assay [2], the system named is A549 lung carcinoma cells. Briefly: cell death assay (trypan blue exclusion, ATP levels). The format is cell-based, human. The following applies: 24 hours, control cells without inhibitor or pretreated with inhibitor.
The subject of assay [3] is tumor cells. Briefly: ion fluxes (Ca^2+, K^+, Na^+) quantified by fluorometry. The class given is cell-based. The following applies: for effect of inhibitor on HAMLET Ca^2+ fluxes: FIG. 1B. Here is the method:
FIG. 1. […] (A, upper panels) Bright-field micrographs showing glass-adherent egg yolk vesicles before and after a 40-minute exposure to HAMLET, α-lactalbumin (HLA) or oleic acid (OA). Morphology was recorded by differential interference contrast microscopy. Scale bar […]. […] (A, lower panels) Effect of HAMLET on PMVs from lung carcinoma cells. PMVs on glass-bottom dishes were exposed to HAMLET, HLA or OA and stained with Nile red for confocal microscopy. […] As a control PMVs from healthy, differentiated cells on glass-bottom dishes were also exposed to HAMLET and stained with Nile red.
FIG. 7. Ion Fluxes. (A) Ion fluxes induced by HAMLET (35 μM) or it constituents (35 μM All-ala α-lactalbumin or 175 μM sodium oleate) were quantified by fluorometry, as described. […] (B) The global transcriptional response to HAMLET was studied by microarray and the top 3000 genes by variance visualized in a Heatmap. […] Darker bands=high expression, lighter bands=low.
The FLUXOR™ potassium (K^+) channel assay was performed on the TECAN infinite F200 (Tecan Group, Switzerland), according to the manufacturer's instructions (Invitrogen). Briefly, this involved FLUXOR™ loading buffer (Hank's Balanced Saline Solution, (HBSS) buffered with 20 mM HEPES and pH adjusted to 7.4 with NaOH. POWERLOAD™ concentrate and water-soluble Probenecid were used respectively to enhance the dye solubility and retention, respectively. Media were removed from the cell plates manually, and 80 μL of loading buffer containing the FLUXOR™ dye mix was applied to each well. Once inside the cell, the nonfluorescent AM ester form of the FLUXOR™ dye is cleaved by endogenous esterases into a thallium-sensitive indicator. The dye was loaded for 60 minutes at room temperature and then removed with the supernatant. After washing with dye-free PBS buffer, a final volume of 80 μL assay buffer containing water-soluble probenecid was added. Cells received one of the following channel inhibitors: 3.3 μL per well of 30 mM amiloride, 3.0 μL of 32 mM BaCl2, 1.8 μL of 5.4 mM gadolinium, 3 μL 3.2 mM tetrandrine and 2.3 μL of 2.6 mM ruthenium red, and were then incubated at room temperature (23-25° C.) for 30 minutes to allow equilibration of the test compounds. Prior to injection, stimulation buffer was prepared from the chloride-free buffer and thallium reagents provided in the kit as well as HAMLET, to achieve a final added concentrations of 2 mM free Tl+ and 35 μM HAMLET after 1:5 dilution upon injection of the stimulus buffer onto cells that had been loaded with FLUXOR™ dye.

The subject of assay [4] is IL-6, IL-8, TNFα in healthy, differentiated cells. The assay can be described thus: innate immune response (qRT-PCR, cytokine quantification). The class given is cell-based, human. On the procedure:
as §1, §2
To examine the molecular basis of the difference in HAMLET susceptibility between carcinoma cells and healthy, differentiated cells, transcriptional profiles were compared.
To further examine if the innate immune response in healthy, differentiated cells requires functional ion channels, the expression of IL-6, IL-8 and TNFα mRNA was quantified in cells pretreated with amiloride and BaCl2, using qRT-PCR.

The mark [5] stands for this setting: 35 μM All-ala α-lactalbumin or 175 μM sodium oleate, FIG. 7A.

For `NC(N)=NC(=O)c1nc(Cl)c(N)nc1N` [amiloride, 3,5-diamino-6-chloro-N-(diaminomethylene)pyrazine-2-carboxamide], the “effect of ion channel inhibitor on HAMLET-induced eIF2α phosphorylation (ER stress)” value in assay [1] was “reduced eIF2α phosphorylation”. Further, in assay [2], the “cells died after HAMLET” value is 8%. Further, in assay [3], the “effect of inhibitor on HAMLET Ca^2+ fluxes” value is reported as “inhibited”. For the same molecule, the “effect of inhibitor on HAMLET-induced IL-6 mRNA” value in assay [4] is “abolished”.

On to `[Ba+2].[Cl-].[Cl-]` [BaCl2, barium chloride], for which the “effect of ion channel inhibitor on HAMLET-induced eIF2α phosphorylation (ER stress)” value in assay [1] is given as “reduced eIF2α phosphorylation”. Moreover, in assay [2], the “cells died after HAMLET” value was 13%. Further, in assay [3], the “effect of inhibitor on HAMLET Ca^2+ fluxes” value is “inhibited”. Moreover, in assay [4], the “effect of inhibitor on HAMLET induced TNFα expression” value is recorded as “caused a reduction”; the “effect of inhibitor on IL-6 and IL-8 response to HAMLET” value was “did not inhibit”.

In the case of `CCCCCCCC/C=C\CCCCCCCC(=O)[O-].[Na+]` [oleate, sodium oleate], the XBP1 splicing result in assay [1] was “caused splicing of XBP1”. Besides, in assay [3] (setting [5]), the “K^+ fluxes” value is reported as “triggered K^+ fluxes” and the “Na^+ or Ca^2+ fluxes” value was “low”.

B1: HAMLET (protein, UniProt P00709 20-142, looked up)
Alpha-lactalbumin: KQFTKCELSQLLKDIDGYGGIALPELICTMFHTSGYDTQAIVENNESTEYGLFQISNKLWCKSSQVPQSRNICDISCDKFLDDDITDDIMCAKKILDIKGIDYWLAHKALCTEKLEQWLCEKL
modifications: oleic acid complex
With B1, the “increase of CHOP mRNA” value in assay [1] (3 hours) was 30 fold. Moreover, the eIF2α phosphorylation result in assay [1] (A549 tumor cells) is “time- (30 minutes) and dose-dependent”. Besides, in assay [1], the XBP1 splicing result was “detected”. The “ATF6 (Western blotting)” value in assay [1] (three hours of HAMLET treatment) is reported as “increase in cleaved as well as full-length ATF6”. In addition, the “cells died after HAMLET” value in assay [2] stood at 44%. For the same molecule, the “secreted protein levels of IL-6, IL-8, and TNFα” value in assay [4] was “clear increase in secreted protein levels”. The “increase in IL-6 mRNA” value in assay [4] (HAMLET 21 μM, 1 hour, qRT-PCR) turned out to be 30 fold.
